Experimental data published in ChEMBL document CHEMBL1201862, “PubChem BioAssay data set” (2004).
Activity calls are given as the source filed them.

Tests used:
Protein RecA = biological target: T1, Protein RecA (Mycobacterium tuberculosis, UniProt P9WHJ3); experiment: Fluorescence Cell-Free Homogeneous Dose Retest to Identify Inhibitors of RecA-Intein Splicing Activity. [Related pubchem assays (depositor defined):AID2097, AID2223, AID489010, AID492950]; type: functional
T1 sequence (P9WHJ3 whole entry): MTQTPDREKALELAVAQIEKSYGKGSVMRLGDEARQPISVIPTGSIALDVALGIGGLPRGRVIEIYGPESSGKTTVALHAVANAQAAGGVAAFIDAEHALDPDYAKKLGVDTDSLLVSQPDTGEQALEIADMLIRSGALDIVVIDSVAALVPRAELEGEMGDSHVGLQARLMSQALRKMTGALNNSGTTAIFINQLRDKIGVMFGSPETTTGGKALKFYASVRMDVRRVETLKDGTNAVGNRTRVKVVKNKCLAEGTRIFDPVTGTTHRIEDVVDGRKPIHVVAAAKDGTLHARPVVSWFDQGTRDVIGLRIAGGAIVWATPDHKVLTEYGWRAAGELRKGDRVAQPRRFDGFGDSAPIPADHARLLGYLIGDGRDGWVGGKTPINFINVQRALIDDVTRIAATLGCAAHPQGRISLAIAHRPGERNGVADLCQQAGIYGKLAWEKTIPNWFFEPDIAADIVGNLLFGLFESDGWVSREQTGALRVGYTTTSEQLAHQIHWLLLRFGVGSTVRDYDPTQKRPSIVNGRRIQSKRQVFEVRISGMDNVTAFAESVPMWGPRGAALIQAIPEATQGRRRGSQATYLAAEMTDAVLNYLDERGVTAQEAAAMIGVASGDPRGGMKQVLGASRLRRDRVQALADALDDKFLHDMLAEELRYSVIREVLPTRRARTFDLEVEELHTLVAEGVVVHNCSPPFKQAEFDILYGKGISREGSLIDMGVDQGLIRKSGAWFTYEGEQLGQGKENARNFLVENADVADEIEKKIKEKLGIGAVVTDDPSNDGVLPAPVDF

[1] = biological target: T2, Replicative DNA helicase DnaB (Mycobacterium tuberculosis, UniProt P9WMR3); experiment: DnaB intein splicing inhibitors, dose response, biochemical, cell-free fluorescence (AID 449749); type: functional
T2 sequence (P9WMR3 whole entry): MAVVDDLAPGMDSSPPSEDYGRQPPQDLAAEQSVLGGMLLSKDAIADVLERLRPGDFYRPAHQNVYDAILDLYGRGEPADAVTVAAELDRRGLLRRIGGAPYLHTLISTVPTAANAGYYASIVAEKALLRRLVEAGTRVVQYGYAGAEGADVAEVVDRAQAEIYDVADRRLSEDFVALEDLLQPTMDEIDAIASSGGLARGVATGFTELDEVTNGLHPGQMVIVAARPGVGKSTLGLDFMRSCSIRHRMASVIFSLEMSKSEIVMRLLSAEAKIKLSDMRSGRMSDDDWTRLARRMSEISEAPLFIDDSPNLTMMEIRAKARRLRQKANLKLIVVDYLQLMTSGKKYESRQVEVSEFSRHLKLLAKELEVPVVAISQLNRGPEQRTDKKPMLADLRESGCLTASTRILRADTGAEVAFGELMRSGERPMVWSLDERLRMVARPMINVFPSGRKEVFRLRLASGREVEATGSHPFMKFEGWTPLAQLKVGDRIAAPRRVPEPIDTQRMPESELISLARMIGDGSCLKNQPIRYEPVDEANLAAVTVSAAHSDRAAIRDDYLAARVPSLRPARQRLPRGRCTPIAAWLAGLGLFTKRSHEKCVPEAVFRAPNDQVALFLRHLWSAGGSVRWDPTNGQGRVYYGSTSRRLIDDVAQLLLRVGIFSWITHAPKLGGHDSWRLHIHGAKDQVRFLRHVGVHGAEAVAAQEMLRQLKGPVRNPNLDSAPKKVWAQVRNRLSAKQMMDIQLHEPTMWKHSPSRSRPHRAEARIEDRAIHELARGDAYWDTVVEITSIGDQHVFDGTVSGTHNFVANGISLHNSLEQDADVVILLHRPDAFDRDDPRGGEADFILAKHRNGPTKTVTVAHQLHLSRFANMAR

[2] = HEp-2 cell cytotoxicity, dose response, cytotoxicity control for RSV inhibitor project, HTS (AID 2410); type: functional; details: human respiratory syncytial virus
[3] = Shn3 3'UTR reporter inhibitors, dose response, cell-based, Clone20 osteoblasts, firefly luciferase, cherry-picked (AID 624132); type: functional;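 note: firefly luciferase luminescence from reporter carrying the Shn3 3'UTR in osteoblasts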
[4] = control 3'UTR Renilla luciferase suppression, dose response, counter-screen for Shn3 inhibitor project, cell-based, Clone20-Shn3RL, cherry-picked (AID 624133); type: functional
Streptokinase A = biological target: T3, Streptokinase A (Streptococcus pyogenes serotype M1, UniProt P10520); experiment: S. pyogenes streptokinase expression inhibitors, potency, dose response, plasminogen activation absorbance, OD405 (AID 1914); type: functional, Streptococcus pyogenes M1 GAS;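 note: secreted streptokinase activity via plasminogen activation per viability signal from cell pellet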
T3 sequence (P10520 whole entry): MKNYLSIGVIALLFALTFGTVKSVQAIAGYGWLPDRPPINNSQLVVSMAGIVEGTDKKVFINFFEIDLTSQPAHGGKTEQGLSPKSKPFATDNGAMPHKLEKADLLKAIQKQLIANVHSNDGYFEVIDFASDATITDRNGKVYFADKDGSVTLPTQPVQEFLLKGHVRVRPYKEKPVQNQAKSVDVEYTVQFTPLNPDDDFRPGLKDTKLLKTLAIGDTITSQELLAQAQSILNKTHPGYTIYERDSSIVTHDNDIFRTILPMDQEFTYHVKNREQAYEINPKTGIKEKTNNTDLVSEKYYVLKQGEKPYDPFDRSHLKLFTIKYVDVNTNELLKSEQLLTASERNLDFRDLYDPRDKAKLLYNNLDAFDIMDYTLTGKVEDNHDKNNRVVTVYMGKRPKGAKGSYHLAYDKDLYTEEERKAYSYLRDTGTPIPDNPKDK

[5] = tested on: Streptococcus sp. 'group A'; experiment: growth inhibition of control SK(-) GAS strain, dose response, counter-screen for streptokinase expression inhibitor project, luminescence, kanamycin, BacTiterGlo, confirmation (AID 1900); type: functional, organism-based
Streptococcus = experiment: Group A Streptococcus viability loss, dose response, counter-screen for streptokinase expression inhibitor project, luminescence, BacTiterGlo (AID 1915); type: functional, organism-based;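 note: potency for reduction of bacterial viability or growth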
INS1 = experiment: beta cell apoptosis inhibitors, cytokine rescue, dose response, luminescence, retest (AID 449756); type: functional, cell-based; details: Rattus norvegicus;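 note: cell death triggered by IL-1 beta plus TNF-alpha plus IFN-gamma mixture; protective hits raise ATP signal compared with cytokine alone wells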
Protein skinhead-1 = biological target: T4, Protein skinhead-1 (Caenorhabditis elegans, UniProt P34707); type: functional
T4 sequence (P34707 whole entry): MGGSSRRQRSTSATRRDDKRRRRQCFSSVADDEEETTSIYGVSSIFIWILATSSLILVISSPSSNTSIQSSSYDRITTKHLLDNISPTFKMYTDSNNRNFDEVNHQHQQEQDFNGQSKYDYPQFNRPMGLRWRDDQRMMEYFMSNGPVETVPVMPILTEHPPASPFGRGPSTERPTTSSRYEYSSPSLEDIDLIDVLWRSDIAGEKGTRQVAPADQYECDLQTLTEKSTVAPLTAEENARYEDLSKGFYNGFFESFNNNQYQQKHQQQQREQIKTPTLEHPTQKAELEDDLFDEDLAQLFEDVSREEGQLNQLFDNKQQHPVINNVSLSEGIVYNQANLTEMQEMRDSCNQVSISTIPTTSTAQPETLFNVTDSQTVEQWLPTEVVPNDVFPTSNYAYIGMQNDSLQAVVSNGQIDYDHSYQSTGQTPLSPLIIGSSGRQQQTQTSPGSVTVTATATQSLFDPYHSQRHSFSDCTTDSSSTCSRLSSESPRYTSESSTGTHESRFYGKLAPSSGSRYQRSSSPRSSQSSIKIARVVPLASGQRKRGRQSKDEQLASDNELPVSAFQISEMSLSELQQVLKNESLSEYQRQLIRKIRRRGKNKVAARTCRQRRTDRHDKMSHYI

H4 = experiment: Luminescence Cell-Based Dose Response HTS to Identify Activators of 5'UTR Stem-Loop Driven Prion Protein mRNA Translation in H4 Neuroglioblastoma Cells. [Related pubchem assays: 1829 (Project Summary), 1814 (Primary HTS)]; type: functional; details: Homo sapiens
[6] = Luminescence Cell-Based Dose Response HTS to Identify Activators of Luciferase Translation or Activity in H4 […] Cells. [Related pubchem assays: 1829 (Project Summary), 1814 (Primary HTS)]; type: functional

O=C(NC1CCCC1)C(c1ccc(F)cc1)N(Cc1ccc(F)cc1)C(=O)CCl (stereo unspecified)
EC50 (Protein RecA): 0.557 µM (active)
AC50 [1]: 4.67 µM (active)

CC(=O)C(C)Oc1ccc2c3c(c(=O)oc2c1)CCCC3 (stereo unspecified)
CC50 [2]: 31.8 µM (active)

O=C(Nc1ccc(S(=O)(=O)N2CCCCC2)cc1)C1CC(=O)N(c2ccc(Cl)cc2)C1 (stereo unspecified)
CC50 [2]: 19.9 µM (active)

COc1cccc(NC(=O)Nc2nnc(N3C(C)CCCC3C)s2)c1 (stereo unspecified)
CC50 [2]: > 50 µM (active)

CCOC(=O)C1CCN(C(=O)c2sc3nc(C)nc(N4CCC(C)CC4)c3c2C)CC1
AC50 [3]: 5.26 µM (active)
AC50 [4]: 9.01 µM (active)

O=C(Nc1ccc2ccccc2c1)c1ccc(NS(=O)(=O)c2ccc(Br)s2)cc1
EC50 (Streptokinase A): > 150 µM (not active)
EC50 [5]: 2 µM (active)
EC50 (Streptococcus): 5.03 µM (active)
CC50 [2]: > 50 µM (active)

COc1ccc(C2=NN(c3nc(C)cc(C)n3)C(=O)C2)cc1
EC50 (Protein RecA): 2.81 µM (active)
AC50 [1]: 4.53 µM (active)

N#Cc1c(Nc2ccccc2)sc(C(=O)c2ccc(F)cc2)c1N
AC50 (INS1): 20.9 µM (active)

Cc1c(NC(=O)/C(C#N)=C/c2ccc(-c3ccc(Cl)c(Cl)c3)o2)c(=O)n(-c2ccccc2)n1C
IC50 (Protein skinhead-1): > 100 µM (inactive)
CC50 [2]: 13.3 µM (active)

Cc1ccccc1C1CCCN(C(=O)c2cc(COc3c(F)cccc3F)on2)C1 (stereo unspecified)
CC50 [2]: 21.6 µM (active)

O=[N+]([O-])c1cccc(-c2c(-c3ccccc3)ncc3cc(F)ccc23)c1
IC50 (Protein skinhead-1): 88.7 µM (inactive)

Clc1ccccc1-c1ncc(-c2ccccc2)o1
IC50 (Protein skinhead-1): 37.3 µM (active)

C[C@@H]1CC=C[C@H]2[C@H]1C(=O)N(Cc1ccccc1)[C@H]2c1ccc(C(F)(F)F)cc1
EC50 (Protein RecA): 87 µM (active)
AC50 [1]: 22.3 µM (active)

COCCn1cnnc1SCC(=O)Nc1cccc(S(=O)(=O)N2CCCCC2)c1
IC50 (Protein skinhead-1): > 100 µM (inactive)

CC1(c2ccccc2)ON(c2ccccc2C(F)(F)F)C1=O (stereo unspecified)
CC50 [2]: 49.9 µM (active)

Cc1n[nH]c2c1C(CCc1ccccc1)C(C#N)=C(N)O2 (stereo unspecified)
EC50 (Protein RecA): 6.58 µM (active)
AC50 [1]: 24.9 µM (active)

N#Cc1cc2c(nc1SCC(=O)Nc1sc3c(c1C#N)CCC3)CCCC2
EC50 (H4): 16 µM (active)
EC50 [6]: > 120 µM (not active)

Cc1ccc2sc3ccc(NC(=O)c4ccccc4Cl)cc3c(=O)c2c1
CC50 [2]: 15.9 µM (active)

Cc1ccc(OCCn2cc(C#N)c3ccccc32)cc1
CC50 [2]: 28.8 µM (active)

Cc1ccccc1Oc1cc(NC(=O)CCCn2nc(C)c([N+](=O)[O-])c2C)cc([N+](=O)[O-])c1
AC50 (INS1): 6.96 µM (active)

COc1ccc2ccc3c(c2c1)N=C[C@]1(O3)N(C)c2ccccc2C1(C)C
EC50 (Streptokinase A): 3.17 µM (active)
EC50 (Protein RecA): 3.66 µM (active)
EC50 [5]: 35.4 µM (active)
EC50 (Streptococcus): > 150 µM (not active)
AC50 [1]: > 380 µM (inactive)

CC1CCc2c(sc3nc(CSc4nc[nH]n4)nc(O)c23)C1 (stereo unspecified)
CC50 [2]: 24.2 µM (active)

O=c1cc(C2CCNCC2)[nH][nH]1
EC50 (Protein RecA): 1.41 µM (active)
AC50 [1]: 3.73 µM (active)

COc1ccc(Br)cc1CN(C)CC(O)COc1ccc(Br)cc1 (stereo unspecified)
IC50 (Protein skinhead-1): > 100 µM (inactive)

O=C1/C(=C/c2cccs2)CCc2ccccc21
IC50 (Protein skinhead-1): 18.6 µM (active)

CCOc1ccc2cc(/C=C/C(=O)c3ccco3)c(Cl)nc2c1
CC50 [2]: 47.7 µM (active)

CCCCOc1ccc(C(=O)NC)cc1
IC50 (Protein skinhead-1): > 100 µM (inactive)

COc1ccc(-n2c(=O)c3ccccc3c3ccccc3c2=O)cc1
EC50 (Protein RecA): 23.3 µM (active)
AC50 [1]: 10.1 µM (active)

Cc1cccc(C(C)(C)C)c1OCCN1CCCC1
AC50 [3]: 34.2 µM (active)
AC50 [4]: 9.87 µM (active)

O=c1c2ccccc2oc2ccc(Oc3ccccc3)cc12
IC50 (Protein skinhead-1): 22.5 µM (active)

Cc1ccc(NC2=NC(=O)/C(=C\c3ccc(C)s3)S2)cc1
IC50 (Protein skinhead-1): > 100 µM (inactive)

COc1ccccc1N(Cc1ccccc1)S(=O)(=O)c1cccc(C(=O)Nc2ccccn2)c1
CC50 [2]: 11.6 µM (active)

Cc1c(C(C)(C)O)[nH]c2ccc(C(F)(F)F)cc12
CC50 [2]: 33.8 µM (active)

O=C(CCN1C(=O)/C(=C/c2cccs2)SC1=S)Nc1cccc(O)c1
EC50 (Protein RecA): 125 µM (active)
AC50 [1]: 1.64 µM (active)

N#CC1(Nc2ccc(-c3ccc(Cl)cc3)cc2)CCCC1
IC50 (Protein skinhead-1): 26.1 µM (active)

C=CCC1CCCCC1=C(C#N)c1ccccc1 (stereo unspecified)
IC50 (Protein skinhead-1): > 100 µM (inactive)

Cc1[nH]n(C)c(=O)c1C(=O)c1c(-c2ccccc2Cl)noc1C
EC50 (Protein RecA): 2.61 µM (active)
AC50 [1]: 6.51 µM (active)

COc1cccc(/C=N/NC(=O)c2cc(-c3ccccn3)nc3ccccc23)c1O
AC50 (INS1): 1.8 µM (active)

O=c1sc(/C=N/Nc2ccccc2)c(Cl)n1Cc1ccccc1
EC50 (H4): 21.4 µM (active)
EC50 [6]: > 120 µM (not active)

Cn1cc(/C=N\NC(=O)c2cccs2)c2ccccc21
EC50 (H4): 37.7 µM (active)
EC50 [6]: 50.3 µM (active)
